Assay results as given in patent US20250120932A1, “PHARMACEUTICAL COMPOSITION” (NEUROPRO THERAPEUTICS, INC., priority 2021, published 2025).

How the values were obtained:
[1] = Solubility in injection vehicle compositions; format: physicochemical; details: 40% PEG-400, 20% Propylene glycol, 5% Ethanol, 35% water
Excerpt: Multiple vehicle compositions were investigated, resulting in a clear dosing solution or suspension at the time of the preparation or shortly after the preparation. Vehicles tested included 55% Polyethylene glycol 400 (PEG-400) in water, 41% PEG-400, 12% Ethanol, 47% water, 45% PEG-400, 10% DMSO, 45% Water, 31% PEG-400, 31% Tetraglycol, 15% Caprylocaproyl Polyoxylglycerides (Labrasol ALF), 23% water, 30% PEG-400, 10% N-Methyl Pyrrolidone, 10% DMSO, 50% water, 25% PEG-400, 10% DMSO, 20% Tetraglycol, 45% water, 20% Ethanol in water, 20% Hydroxypropyl-β-Cyclodextrin in water, 11% DMSO, 22% PEG-400, 22% Tetraglycol, 44% water, 44% PEG-400, 0.4% Poloxamer-188, 22% N-Methyl Pyrrolidone, 33% water, and 20% PEG-400, 15% Hydroxypropyl-β-Cyclodextrin in water.
After filtration with a 0.22 μm PVDF filter, the sample stayed clear for up to 7 days. The compositions selected for animal studies are described in Table 67 and Table 68.

[2] = Solubility in 1:1 mixture of Gelucire 44/14 and Span 80 (tablet solubilizer); format: physicochemical
Procedure: After successful completion of the dry blend tablet formulation, efforts were made to attempt to enhance solubilization of the drug. Upon successful creation of the tablet prototype batch A, the tablet prototype batch B was developed wherein Bumetanide Dibenzylamide solubilizers were incorporated directly into the dry blend tablet formulation. […] The 1:1 ratio of Lauroyl Polyoxyl-32 Glycerides (Gelucire 44/14), to Sorbitan Ester (Span 80), was determined by combined melting point, taste, viscosity, and solubilizing ability. The ratio provided a semi-solid, which may be liquefied upon application of low heat. […] This mixture was kept under constant stirring to ensure complete even dispersal of ingredients. Continuing under constant heating and mixing, Neusilin US2 (Magnesium Aluminometasilicate) was slowly added to adsorb the viscous mixture onto its particles rough surface. Upon complete adsorption the heat was removed with continued mixing until room temperature was reached. The cooled, hot-melt granulation was then sieved and blended with sieved Polyplasdone XL (Super Disintegrate), Cabosil M5P (fumed silica), and Citric Acid Monohydrate, and Magnesium Stearate. Table 58 illustrates the formulation employed for a sublingual tablet prototype batch B, which was utilized for canine studies. […]

With `CCCCNc1cc(C(=O)N(Cc2ccccc2)Cc2ccccc2)cc(S(N)(=O)=O)c1Oc1ccccc1` [Bumetanide Dibenzylamide, N, N-dibenzyl 3-aminosulfonyl-5-butylamino-4-phenoxybenzamide] the “time sample stayed clear after filtration” value ([1]; 0.22 μm PVDF filter) was “up to 7 days”, the “time as clear solution” value ([1]; room temperature) was “at least 3 hours” and the solubility [2] was “approximately 500 mg/g”.
